From ChEMBL document CHEMBL4308841, “Synthesis, in vitro antiproliferative activity, and kinase inhibitory effects of pyrazole-containing diarylureas and diarylamides” (Eur J Med Chem, 2018)

Tests used:
T47D = assay: Growth inhibition of human T47D cells assessed as cell growth at 1 uM incubated for 48 hrs by sulforhodamine B assay relative to control; type: functional; details: read-out: Activity
HL-60(TB) [1] = assay: Growth inhibition of human HL-60(TB) cells assessed as cell growth at 100 uM incubated for 48 hrs by sulforhodamine B assay relative to control; type: functional; details: HL-60, 48 h, read-out: Activity
SN12C = assay: Growth inhibition of human SN12C cells assessed as cell growth at 1 uM incubated for 48 hrs by sulforhodamine B assay relative to control; type: functional; details: read-out: Activity
M14 = assay: Growth inhibition of human M14 cells incubated for 48 hrs by sulforhodamine B assay; type: functional, cell-based; details: M14, 48 h
SK-MEL-2 = assay: Growth inhibition of human SK-MEL-2 cells assessed as cell growth at 0.01 uM incubated for 48 hrs by sulforhodamine B assay relative to control; type: functional; details: SK-MEL-2, 48 h, read-out: Activity
MDA-MB-435 = assay: Growth inhibition of human MDA-MB-435 cells assessed as cell growth at 0.1 uM incubated for 48 hrs by sulforhodamine B assay relative to control; type: functional; details: MDA-MB-435, 48 h, read-out: Activity
SF-539 = assay: Growth inhibition of human SF539 cells assessed as cell growth at 0.1 uM incubated for 48 hrs by sulforhodamine B assay relative to control; type: functional; details: SF-539, 48 h, read-out: Activity
MOLT-4 = assay: Growth inhibition of human MOLT4 cells assessed as cell growth at 100 uM incubated for 48 hrs by sulforhodamine B assay relative to control; type: functional; details: MOLT-4, 48 h, read-out: Activity
LOX IMVI = assay: Growth inhibition of human LOXIMVI cells assessed as cell growth at 100 uM incubated for 48 hrs by sulforhodamine B assay relative to control; type: functional; details: read-out: Activity
U-251 = assay: Growth inhibition of human U251 cells assessed as cell growth at 0.1 uM incubated for 48 hrs by sulforhodamine B assay relative to control; type: functional; details: U-251, 48 h, read-out: Activity
Hs-578T = assay: Growth inhibition of human Hs578T cells assessed as cell growth at 0.01 uM incubated for 48 hrs by sulforhodamine B assay relative to control; type: functional; details: read-out: Activity
K562 = assay: Growth inhibition of human K562 cells assessed as cell growth at 1 uM incubated for 48 hrs by sulforhodamine B assay relative to control; type: functional; details: K562, 48 h, read-out: Activity
HL-60(TB) [2] = assay: Growth inhibition of human HL-60(TB) cells assessed as cell growth at 1 uM incubated for 48 hrs by sulforhodamine B assay relative to control; type: functional; details: HL-60, 48 h, read-out: Activity
UACC-62 = assay: Growth inhibition of human UACC62 cells assessed as cell growth at 1 uM incubated for 48 hrs by sulforhodamine B assay relative to control; type: functional; details: UACC-62, 48 h, read-out: Activity
BT-549 = assay: Growth inhibition of human BT549 cells assessed as cell growth at 0.1 uM incubated for 48 hrs by sulforhodamine B assay relative to control; type: functional; details: BT-549, 48 h, read-out: Activity
NCI-H23 = assay: Growth inhibition of human NCI-H23 cells incubated for 48 hrs by sulforhodamine B assay; type: functional, cell-based; details: NCI-H23, 48 h
RPMI-8226 [3] = assay: Growth inhibition of human RPMI8226 cells incubated for 48 hrs by sulforhodamine B assay; type: functional, cell-based; details: RPMI-8226, 48 h
SK-MEL-28 = assay: Growth inhibition of human SK-MEL-28 cells assessed as cell growth at 0.01 uM incubated for 48 hrs by sulforhodamine B assay relative to control; type: functional; details: SK-MEL-28, 48 h, read-out: Activity
NCI-H322M = assay: Growth inhibition of human NCI-H322M cells incubated for 48 hrs by sulforhodamine B assay; type: functional, cell-based
SK-OV-3 = assay: Growth inhibition of human SKOV3 cells assessed as cell growth at 1 uM incubated for 48 hrs by sulforhodamine B assay relative to control; type: functional; details: SK-OV-3, 48 h, read-out: Activity
Malme-3M [4] = assay: Growth inhibition of human MALME-3M cells assessed as cell growth at 0.01 uM incubated for 48 hrs by sulforhodamine B assay relative to control; type: functional; details: read-out: Activity
RPMI-8226 [5] = assay: Growth inhibition of human RPMI8226 cells assessed as cell growth at 100 uM incubated for 48 hrs by sulforhodamine B assay relative to control; type: functional; details: RPMI-8226, 48 h, read-out: Activity
KM12 = assay: Growth inhibition of human KM12 cells assessed as cell growth at 1 uM incubated for 48 hrs by sulforhodamine B assay relative to control; type: functional; details: KM12, 48 h, read-out: Activity
SNB-19 = assay: Growth inhibition of human SNB19 cells incubated for 48 hrs by sulforhodamine B assay; type: functional, cell-based; details: SNB-19, 48 h
PC-3 = assay: Growth inhibition of human PC3 cells assessed as cell growth at 0.01 uM incubated for 48 hrs by sulforhodamine B assay relative to control; type: functional; details: PC-3, 48 h, read-out: Activity
Malme-3M [6] = assay: Growth inhibition of human MALME-3M cells assessed as cell growth at 100 uM incubated for 48 hrs by sulforhodamine B assay relative to control; type: functional; details: read-out: Activity
MDA-MB-231 = assay: Growth inhibition of human MDA-MB-231 cells assessed as cell growth at 1 uM incubated for 48 hrs by sulforhodamine B assay relative to control; type: functional; details: MDA-MB-231, 48 h, read-out: Activity
NCI/ADR-RES = assay: Growth inhibition of human NCI/ADR-RES cells incubated for 48 hrs by sulforhodamine B assay; type: functional, cell-based
NCI-H522 = assay: Growth inhibition of human NCI-H522 cells assessed as cell growth at 0.1 uM incubated for 48 hrs by sulforhodamine B assay relative to control; type: functional; details: NCI-H522, 48 h, read-out: Activity
[7] = read-out: LC50 (the source's name)
[8] = read-out: pLC50 (the source's name) (converted)

How did the growth at 1 µM (T47D) turn out when `O=C(Nc1cccc(-n2cc(-c3ccncc3)c(-c3cc(O)cc(Cl)c3)n2)c1)Nc1ccc(Cl)c(C(F)(F)F)c1` was run?
The growth at 1 µM was 53%.

And the growth at 100 µM (HL-60(TB) [1])?
Its growth at 100 µM is -15%.

What about the growth at 1 µM (SN12C) of the same molecule?
Its growth at 1 µM is 97%.

What about the GI50 (M14; read-out: GI50) of the same molecule?
Its GI50 is 1.72 µM.

What about the CC50 (M14; [7]) of the same molecule?
The CC50 was 55.8 µM.

What about the TGI (M14; read-out: TGI) of the same molecule?
The TGI was 38.8 µM.

And the GI50 (M14; read-out: pGI50 (converted))?
The GI50 was 1.7 µM.

And the CC50 (M14; [8])?
Its CC50 is 8.71 µM.

And the TGI (M14; read-out: pTGI (converted))?
The TGI was 3.89 µM.

And the growth at 0.01 µM (SK-MEL-2)?
Its growth at 0.01 µM is 99%.

What about the growth at 0.1 µM (MDA-MB-435) of the same molecule?
Its growth at 0.1 µM is 94%.

What about the growth at 0.1 µM (SF-539) of the same molecule?
The growth at 0.1 µM was 95%.

And the growth at 100 µM (MOLT-4)?
The growth at 100 µM was -39%.

What about the growth at 100 µM (LOX IMVI) of the same molecule?
The growth at 100 µM was -89%.

And the growth at 0.1 µM (U-251)?
Its growth at 0.1 µM is 91%.

What about the growth at 0.01 µM (Hs-578T) of the same molecule?
The growth at 0.01 µM was 95%.

What about the growth at 1 µM (K562) of the same molecule?
The growth at 1 µM was 55%.

And the growth at 1 µM (HL-60(TB) [2])?
The growth at 1 µM was 113%.

And the growth at 1 µM (UACC-62)?
The growth at 1 µM was 99%.

And the growth at 0.1 µM (BT-549)?
Its growth at 0.1 µM is 95%.

What about the GI50 (NCI-H23; read-out: GI50) of the same molecule?
Its GI50 is 2.58 µM.

What about the LC50 (NCI-H23; read-out: LC50) of the same molecule?
Its LC50 is 45.1 µM.

What about the TGI (NCI-H23; read-out: TGI) of the same molecule?
Its TGI is 74 µM.

What about the GI50 (NCI-H23; read-out: pGI50 (converted)) of the same molecule?
The GI50 was 2.57 µM.

What about the LC50 (NCI-H23; read-out: pLC50 (converted)) of the same molecule?
The LC50 was 45.7 µM.

And the TGI (NCI-H23; read-out: pTGI (converted))?
Its TGI is 7.41 µM.

What about the IC50 (RPMI-8226 [3]) of the same molecule?
Its IC50 is 1.95 µM.

And the GI50 (RPMI-8226 [3]; read-out: GI50)?
Its GI50 is 1.96 µM.

What about the CC50 (RPMI-8226 [3]; [7]) of the same molecule?
The CC50 was over 100 µM.

What about the TGI (RPMI-8226 [3]; read-out: TGI) of the same molecule?
Its TGI is 50 µM.

What about the GI50 (RPMI-8226 [3]; read-out: pGI50 (converted)) of the same molecule?
The GI50 was 1.95 µM.

And the CC50 (RPMI-8226 [3]; [8])?
Its CC50 is over 100 µM.

What about the TGI (RPMI-8226 [3]; read-out: pTGI (converted)) of the same molecule?
Its TGI is 5.13 µM.

And the growth at 0.01 µM (SK-MEL-28)?
The growth at 0.01 µM was 97%.

What about the GI50 (NCI-H322M; read-out: GI50) of the same molecule?
The GI50 was 3.15 µM.

What about the CC50 (NCI-H322M; [7]) of the same molecule?
Its CC50 is 95.5 µM.

And the TGI (NCI-H322M; read-out: TGI)?
The TGI was 13 µM.

What about the GI50 (NCI-H322M; read-out: pGI50 (converted)) of the same molecule?
Its GI50 is 3.16 µM.

And the CC50 (NCI-H322M; [8])?
Its CC50 is 95.5 µM.

And the TGI (NCI-H322M; read-out: pTGI (converted))?
The TGI was 12.9 µM.

And the growth at 1 µM (SK-OV-3)?
The growth at 1 µM was 107%.

And the growth at 0.01 µM (Malme-3M [4])?
Its growth at 0.01 µM is 93%.

What about the growth at 100 µM (RPMI-8226 [5]) of the same molecule?
The growth at 100 µM was -30%.

And the growth at 1 µM (KM12)?
The growth at 1 µM was 56%.

And the GI50 (SNB-19; read-out: GI50)?
The GI50 was 3.7 µM.

And the CC50 (SNB-19; [7])?
The CC50 was over 100 µM.

What about the TGI (SNB-19; read-out: TGI) of the same molecule?
Its TGI is 15.9 µM.

What about the GI50 (SNB-19; read-out: pGI50 (converted)) of the same molecule?
The GI50 was 3.72 µM.

What about the CC50 (SNB-19; [8]) of the same molecule?
Its CC50 is over 100 µM.

And the TGI (SNB-19; read-out: pTGI (converted))?
The TGI was 16.6 µM.

And the growth at 0.01 µM (PC-3)?
The growth at 0.01 µM was 95%.

What about the growth at 100 µM (Malme-3M [6]) of the same molecule?
Its growth at 100 µM is -91%.

What about the growth at 1 µM (MDA-MB-231) of the same molecule?
The growth at 1 µM was 77%.

And the GI50 (NCI/ADR-RES; read-out: GI50)?
The GI50 was 3.41 µM.

What about the CC50 (NCI/ADR-RES; [7]) of the same molecule?
Its CC50 is over 100 µM.

And the TGI (NCI/ADR-RES; read-out: TGI)?
The TGI was 23.6 µM.

And the GI50 (NCI/ADR-RES; read-out: pGI50 (converted))?
Its GI50 is 3.39 µM.

What about the CC50 (NCI/ADR-RES; [8]) of the same molecule?
Its CC50 is over 100 µM.

What about the TGI (NCI/ADR-RES; read-out: pTGI (converted)) of the same molecule?
The TGI was 23.4 µM.

What about the growth at 0.1 µM (NCI-H522) of the same molecule?
Its growth at 0.1 µM is 83%.
